Results as given in ChEMBL document CHEMBL4000195, “Design and synthesis of novel 7-aminosubstituted pyrido[2,3-b]pyrazines exhibiting anti-breast cancer activity” (Eur J Med Chem, 2017).
Blank lines part the entries; values can stand above or below the compound they belong to. Activity calls are given as the source filed them. No cut-off for these calls is given here.

Tests used:
MCF7 [1] = assay: Cytotoxicity against human MCF7 cells at 5 uM by MTT assay; format: functional
[2] = biological target: Vascular endothelial growth factor receptor 2 (Homo sapiens) (UniProt P35968); assay: Inhibition of recombinant human GST-tagged VEGFR-2 (789-end residues) transphosphorylation activity expressed in baculovirus infected Sf9 cells using poly[Glu:Tyr] (4:1) as substrate after 60 mins
[3] = biological target: Phosphatidylinositol 4,5-bisphosphate 3-kinase catalytic subunit alpha isoform (Homo sapiens, UniProt P42336); assay: Inhibition of PI3Kalpha catalytic domain (unknown origin) using PIP2 liposomes as substrate in presence of biotin-labeled PIP3 and GST-GRP1-PH by streptavidin-HRP based assays
MCF7 [4] = assay: Cytotoxicity against human MCF7 cells by MTT assay; format: functional, cell-based
Mus musculus [5] = assay: Toxicity in NOD/SCID mouse assessed as phenotypic changes at 0.5 mg/kg, po administered as single dose; format: organism-based; details: in vivo
[6] = biological target: Receptor-interacting serine/threonine-protein kinase 3 (Homo sapiens) (UniProt Q9Y572); assay: Inhibition of human RIPK3
T47D [7] = assay: Cytotoxicity against human T47D cells at 5 uM by MTT assay; format: functional
T47D [8] = assay: Cytotoxicity against human T47D cells by MTT assay; format: functional, cell-based
[9] = biological target: Mast/stem cell growth factor receptor Kit (Homo sapiens) (UniProt P10721); assay: Inhibition of recombinant human GST-tagged KIT (544-end residues) transphosphorylation activity expressed in baculovirus infected Sf9 cells using poly[Glu:Tyr] (4:1) as substrate after 60 mins
HCC1954 [10] = assay: Cytotoxicity against human HCC1954 cells at 10 uM by MTT assay; format: functional
MCF7 [11] = assay: Cytotoxicity against human MCF7 cells at 10 uM by MTT assay; format: functional
[12] = biological target: T1, Serine/threonine-protein kinase haspin (Homo sapiens) (UniProt Q8TF76); assay: Inhibition of human HASPIN
T1 sequence (whole entry): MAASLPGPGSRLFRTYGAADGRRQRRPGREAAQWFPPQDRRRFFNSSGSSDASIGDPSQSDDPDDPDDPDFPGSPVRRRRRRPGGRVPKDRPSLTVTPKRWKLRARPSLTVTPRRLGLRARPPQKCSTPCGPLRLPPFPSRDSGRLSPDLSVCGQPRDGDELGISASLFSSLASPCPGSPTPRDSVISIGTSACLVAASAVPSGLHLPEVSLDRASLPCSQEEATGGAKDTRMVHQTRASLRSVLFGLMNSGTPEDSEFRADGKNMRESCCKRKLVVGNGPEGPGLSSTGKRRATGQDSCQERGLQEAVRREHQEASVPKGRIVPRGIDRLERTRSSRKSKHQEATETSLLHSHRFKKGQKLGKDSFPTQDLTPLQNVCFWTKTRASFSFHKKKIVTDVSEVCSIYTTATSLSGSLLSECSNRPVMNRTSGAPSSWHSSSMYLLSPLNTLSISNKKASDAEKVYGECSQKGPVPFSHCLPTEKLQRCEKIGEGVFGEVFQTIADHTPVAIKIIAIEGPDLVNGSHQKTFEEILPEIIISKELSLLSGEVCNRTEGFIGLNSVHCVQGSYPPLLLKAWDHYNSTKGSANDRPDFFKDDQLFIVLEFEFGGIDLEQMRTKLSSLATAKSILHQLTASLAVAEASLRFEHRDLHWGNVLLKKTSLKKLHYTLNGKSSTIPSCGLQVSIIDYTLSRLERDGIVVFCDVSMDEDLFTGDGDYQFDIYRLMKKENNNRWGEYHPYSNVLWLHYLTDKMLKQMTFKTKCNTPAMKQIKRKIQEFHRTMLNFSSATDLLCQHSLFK

[13] = biological target: Aurora kinase B/Inner centromere protein (Homo sapiens) (UniProt Q96GD4+Q9NQS7); assay: Inhibition of human AURKB/INCENP; format: protein-complex assay
[14] = AUC (0 to 8 hrs) in NOD/SCID mouse at 0.5 mg/kg, ip administered as single dose by LC-MS/MS method; format: ADME, organism-based; parameters: dose 0.5 mg/kg, time < 8 hr, route intraperitoneal; details: in vivo
[15] = Cmax in NOD/SCID mouse at 0.5 mg/kg, po administered as single dose by LC-MS/MS method; format: ADME, organism-based; parameters: dose 0.5 mg/kg, route oral; details: in vivo
[16] = biological target: Dual specificity protein kinase CLK1 (Mus musculus) (UniProt P22518); assay: Inhibition of mouse CLK1
MDA-MB-231 [17] = assay: Cytotoxicity against human MDA-MB-231 cells at 10 uM by MTT assay; format: functional
[18] = Tmax in NOD/SCID mouse at 0.5 mg/kg, ip administered as single dose by LC-MS/MS method; format: ADME, organism-based; details: in vivo
[19] = biological target: Glycogen synthase kinase-3 (Sus scrofa) (UniProt B2LUN4+I6LNT8); assay: Inhibition of pig GSK3alpha/beta using GS-1 as substrate in presence of [gamma33P]ATP after 30 mins by scintillation counting method
MDA-MB-231 [20] = assay: Cytotoxicity against human MDA-MB-231 cells by MTT assay; format: functional, cell-based
Sus scrofa = species: Sus scrofa; assay: Inhibition of pig CK1delta/epsilon
MDA-MB-231 [21] = assay: Cytotoxicity against human MDA-MB-231 cells at 5 uM by MTT assay; format: functional
[22] = Tmax in NOD/SCID mouse at 0.5 mg/kg, po administered as single dose by LC-MS/MS method; format: ADME, organism-based; details: in vivo
[23] = biological target: Dual specificity tyrosine-phosphorylation-regulated kinase 1A (Rattus norvegicus) (UniProt Q63470); assay: Inhibition of rat DYRK1A using myelin basic protein as substrate in presence of [gamma33P]ATP after 30 mins by scintillation counting method
[24] = Cmax in NOD/SCID mouse at 0.5 mg/kg, ip administered as single dose by LC-MS/MS method; format: ADME, organism-based; parameters: dose 0.5 mg/kg, route intraperitoneal; details: in vivo
HCC1954 [25] = assay: Cytotoxicity against human HCC1954 cells by MTT assay; format: functional, cell-based
[26] = biological target: Cyclin-dependent kinase 5/CDK5 activator 1 (Homo sapiens) (UniProt Q00535+Q15078); assay: Inhibition of human CDK5/p25 using histone H1 as substrate in presence of [gamma33P]ATP after 30 mins by scintillation counting method; format: protein-complex assay
HCC1954 [27] = assay: Cytotoxicity against human HCC1954 cells at 5 uM by MTT assay; format: functional
[28] = biological target: Platelet-derived growth factor receptor beta (Homo sapiens) (UniProt P09619); assay: Inhibition of recombinant human GST-tagged PDGFR-beta (557-end residues) transphosphorylation activity expressed in baculovirus infected Sf9 cells using poly[Glu:Tyr] (4:1) as substrate after 60 mins
[29] = biological target: Receptor-type tyrosine-protein kinase FLT3 (Homo sapiens) (UniProt P36888); assay: Inhibition of recombinant human GST-tagged FLT3 (571 to 993 residues) transphosphorylation activity expressed in baculovirus infected Sf9 cells using poly[Glu:Tyr] (4:1) as substrate after 60 mins
SK-BR-3 = assay: Cytotoxicity against human SKBR3 cells by MTT assay; format: functional, cell-based
T47D [30] = assay: Cytotoxicity against human T47D cells at 10 uM by MTT assay; format: functional
Mus musculus [31] = assay: Toxicity in NOD/SCID mouse assessed as phenotypic changes at 0.5 mg/kg, ip administered as single dose; format: organism-based; details: in vivo
[32] = AUC (0 to 8 hrs) in NOD/SCID mouse at 0.5 mg/kg, po administered as single dose by LC-MS/MS method; format: ADME, organism-based; parameters: time < 8 hr, dose 0.5 mg/kg, route oral; details: in vivo
HCC1954 [33] = assay: Anti-tumor activity against HER2-amplified human HCC1954 cells xenografted in NOD/SCID mouse assessed as tumor size at 10 mg/kg, ip administered once daily for 18 days measured after 1 hr last dose (reference value: 497 +/- 82 mm3); format: functional

Sequence of Receptor-interacting serine/threonine-protein kinase 3 (Homo sapiens) (Q9Y572 whole entry, looked up): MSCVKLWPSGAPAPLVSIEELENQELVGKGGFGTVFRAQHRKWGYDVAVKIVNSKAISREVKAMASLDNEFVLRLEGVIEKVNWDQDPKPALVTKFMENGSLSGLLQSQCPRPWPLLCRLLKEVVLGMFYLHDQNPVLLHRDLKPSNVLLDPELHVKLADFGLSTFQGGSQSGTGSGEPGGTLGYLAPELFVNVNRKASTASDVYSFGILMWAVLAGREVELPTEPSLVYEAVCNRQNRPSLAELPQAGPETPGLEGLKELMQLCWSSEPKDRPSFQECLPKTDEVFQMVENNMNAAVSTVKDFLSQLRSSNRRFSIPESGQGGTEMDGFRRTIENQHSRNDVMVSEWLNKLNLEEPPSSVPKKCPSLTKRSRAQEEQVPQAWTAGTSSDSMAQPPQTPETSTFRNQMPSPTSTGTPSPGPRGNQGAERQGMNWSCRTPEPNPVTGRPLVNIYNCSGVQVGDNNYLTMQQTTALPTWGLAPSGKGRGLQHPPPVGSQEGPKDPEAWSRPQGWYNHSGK
Sequence of Receptor-type tyrosine-protein kinase FLT3 (Homo sapiens) (P36888 whole entry, the tested form may be a part): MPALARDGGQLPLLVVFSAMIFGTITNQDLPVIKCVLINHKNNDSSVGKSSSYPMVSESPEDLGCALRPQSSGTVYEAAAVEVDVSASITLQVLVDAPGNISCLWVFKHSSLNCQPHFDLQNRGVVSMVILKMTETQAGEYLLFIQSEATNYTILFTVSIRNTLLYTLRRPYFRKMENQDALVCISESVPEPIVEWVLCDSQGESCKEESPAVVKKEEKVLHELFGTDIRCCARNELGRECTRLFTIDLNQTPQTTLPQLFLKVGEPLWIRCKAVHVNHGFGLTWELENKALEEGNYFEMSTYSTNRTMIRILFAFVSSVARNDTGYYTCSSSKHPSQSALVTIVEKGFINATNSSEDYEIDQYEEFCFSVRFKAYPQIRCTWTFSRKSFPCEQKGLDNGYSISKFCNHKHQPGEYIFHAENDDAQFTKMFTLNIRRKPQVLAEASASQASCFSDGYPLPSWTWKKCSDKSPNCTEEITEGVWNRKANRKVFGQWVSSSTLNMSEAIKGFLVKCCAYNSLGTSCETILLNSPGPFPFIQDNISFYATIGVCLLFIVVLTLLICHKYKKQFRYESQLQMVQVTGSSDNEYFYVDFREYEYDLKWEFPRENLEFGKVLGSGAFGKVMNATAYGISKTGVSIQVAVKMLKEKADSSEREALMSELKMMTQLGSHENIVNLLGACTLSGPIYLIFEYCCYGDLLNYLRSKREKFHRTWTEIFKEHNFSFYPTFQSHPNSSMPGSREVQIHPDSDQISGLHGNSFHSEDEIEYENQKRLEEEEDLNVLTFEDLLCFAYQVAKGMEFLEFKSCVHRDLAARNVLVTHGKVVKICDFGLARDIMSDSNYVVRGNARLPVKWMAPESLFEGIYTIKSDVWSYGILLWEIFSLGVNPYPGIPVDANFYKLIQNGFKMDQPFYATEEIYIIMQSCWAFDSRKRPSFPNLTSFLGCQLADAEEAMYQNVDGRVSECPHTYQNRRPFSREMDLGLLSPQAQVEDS
Sequence of Dual specificity protein kinase CLK1 (Mus musculus) (P22518 whole entry, looked up): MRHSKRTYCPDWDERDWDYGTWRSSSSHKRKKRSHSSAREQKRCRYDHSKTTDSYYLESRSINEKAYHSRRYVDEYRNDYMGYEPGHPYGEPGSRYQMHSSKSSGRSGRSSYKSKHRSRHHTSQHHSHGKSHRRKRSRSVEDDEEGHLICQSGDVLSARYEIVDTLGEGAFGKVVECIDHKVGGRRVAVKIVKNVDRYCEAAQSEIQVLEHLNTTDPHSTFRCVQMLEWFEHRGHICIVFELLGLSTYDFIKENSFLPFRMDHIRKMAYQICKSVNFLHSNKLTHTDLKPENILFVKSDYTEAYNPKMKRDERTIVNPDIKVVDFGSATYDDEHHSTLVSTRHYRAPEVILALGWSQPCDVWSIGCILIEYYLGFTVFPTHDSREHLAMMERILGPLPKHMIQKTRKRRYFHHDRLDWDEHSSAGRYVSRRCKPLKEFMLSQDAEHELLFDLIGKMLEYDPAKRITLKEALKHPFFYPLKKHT
Sequence of Vascular endothelial growth factor receptor 2 (Homo sapiens) (P35968 whole entry, the tested form may be a part, canonical isoform): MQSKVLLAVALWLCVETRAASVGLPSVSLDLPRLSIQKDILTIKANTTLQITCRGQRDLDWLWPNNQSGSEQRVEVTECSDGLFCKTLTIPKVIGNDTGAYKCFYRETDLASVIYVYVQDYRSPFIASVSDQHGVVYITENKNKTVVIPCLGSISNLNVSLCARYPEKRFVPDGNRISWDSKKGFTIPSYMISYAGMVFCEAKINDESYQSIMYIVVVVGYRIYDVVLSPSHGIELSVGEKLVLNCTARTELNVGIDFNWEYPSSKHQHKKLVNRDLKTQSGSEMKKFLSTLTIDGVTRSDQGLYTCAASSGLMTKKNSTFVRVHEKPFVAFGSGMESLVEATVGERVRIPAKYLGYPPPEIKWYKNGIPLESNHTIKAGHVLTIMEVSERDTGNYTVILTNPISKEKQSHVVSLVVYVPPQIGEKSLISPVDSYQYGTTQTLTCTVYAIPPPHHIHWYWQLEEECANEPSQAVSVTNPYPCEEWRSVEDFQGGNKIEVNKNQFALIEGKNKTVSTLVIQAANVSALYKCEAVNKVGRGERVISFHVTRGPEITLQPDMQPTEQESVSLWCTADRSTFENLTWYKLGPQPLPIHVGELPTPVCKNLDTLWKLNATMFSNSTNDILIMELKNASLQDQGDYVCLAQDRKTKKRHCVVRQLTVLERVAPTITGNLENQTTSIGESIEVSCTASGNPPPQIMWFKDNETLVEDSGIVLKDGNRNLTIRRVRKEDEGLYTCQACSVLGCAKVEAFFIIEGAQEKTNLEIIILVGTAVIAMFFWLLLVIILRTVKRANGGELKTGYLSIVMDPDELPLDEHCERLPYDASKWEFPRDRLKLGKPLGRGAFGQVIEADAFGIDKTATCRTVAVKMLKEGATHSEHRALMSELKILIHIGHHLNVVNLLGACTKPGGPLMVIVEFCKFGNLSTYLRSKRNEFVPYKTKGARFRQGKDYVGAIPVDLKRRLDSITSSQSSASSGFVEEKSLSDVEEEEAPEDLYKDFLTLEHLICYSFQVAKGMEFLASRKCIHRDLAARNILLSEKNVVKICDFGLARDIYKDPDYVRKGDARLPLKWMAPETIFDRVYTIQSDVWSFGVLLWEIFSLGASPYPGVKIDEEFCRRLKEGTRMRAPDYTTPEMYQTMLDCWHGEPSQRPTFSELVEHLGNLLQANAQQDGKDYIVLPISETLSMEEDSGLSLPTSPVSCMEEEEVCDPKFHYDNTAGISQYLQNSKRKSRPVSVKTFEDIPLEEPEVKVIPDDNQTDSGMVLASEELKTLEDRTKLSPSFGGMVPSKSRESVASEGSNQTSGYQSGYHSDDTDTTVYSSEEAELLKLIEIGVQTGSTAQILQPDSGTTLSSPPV
Sequence of Cyclin-dependent kinase 5/CDK5 activator 1 (Homo sapiens) (Q00535 whole entry): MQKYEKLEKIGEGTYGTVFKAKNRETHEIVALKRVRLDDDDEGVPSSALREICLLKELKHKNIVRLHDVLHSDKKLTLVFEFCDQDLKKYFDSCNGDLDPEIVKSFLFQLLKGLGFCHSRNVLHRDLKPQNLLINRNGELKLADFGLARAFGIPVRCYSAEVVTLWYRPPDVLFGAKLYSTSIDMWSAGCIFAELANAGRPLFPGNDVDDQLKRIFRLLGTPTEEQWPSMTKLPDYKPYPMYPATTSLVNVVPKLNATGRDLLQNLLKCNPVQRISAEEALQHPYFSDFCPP
Sequence of Cyclin-dependent kinase 5/CDK5 activator 1 (Homo sapiens) (Q15078 99-307 partner limits assumed): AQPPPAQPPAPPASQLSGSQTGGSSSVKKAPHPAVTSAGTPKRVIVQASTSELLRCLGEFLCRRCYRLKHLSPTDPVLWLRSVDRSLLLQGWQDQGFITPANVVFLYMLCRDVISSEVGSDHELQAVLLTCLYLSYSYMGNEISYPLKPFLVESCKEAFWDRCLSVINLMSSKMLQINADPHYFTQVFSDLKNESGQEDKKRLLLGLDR
Sequence of Mast/stem cell growth factor receptor Kit (Homo sapiens) (P10721 whole entry): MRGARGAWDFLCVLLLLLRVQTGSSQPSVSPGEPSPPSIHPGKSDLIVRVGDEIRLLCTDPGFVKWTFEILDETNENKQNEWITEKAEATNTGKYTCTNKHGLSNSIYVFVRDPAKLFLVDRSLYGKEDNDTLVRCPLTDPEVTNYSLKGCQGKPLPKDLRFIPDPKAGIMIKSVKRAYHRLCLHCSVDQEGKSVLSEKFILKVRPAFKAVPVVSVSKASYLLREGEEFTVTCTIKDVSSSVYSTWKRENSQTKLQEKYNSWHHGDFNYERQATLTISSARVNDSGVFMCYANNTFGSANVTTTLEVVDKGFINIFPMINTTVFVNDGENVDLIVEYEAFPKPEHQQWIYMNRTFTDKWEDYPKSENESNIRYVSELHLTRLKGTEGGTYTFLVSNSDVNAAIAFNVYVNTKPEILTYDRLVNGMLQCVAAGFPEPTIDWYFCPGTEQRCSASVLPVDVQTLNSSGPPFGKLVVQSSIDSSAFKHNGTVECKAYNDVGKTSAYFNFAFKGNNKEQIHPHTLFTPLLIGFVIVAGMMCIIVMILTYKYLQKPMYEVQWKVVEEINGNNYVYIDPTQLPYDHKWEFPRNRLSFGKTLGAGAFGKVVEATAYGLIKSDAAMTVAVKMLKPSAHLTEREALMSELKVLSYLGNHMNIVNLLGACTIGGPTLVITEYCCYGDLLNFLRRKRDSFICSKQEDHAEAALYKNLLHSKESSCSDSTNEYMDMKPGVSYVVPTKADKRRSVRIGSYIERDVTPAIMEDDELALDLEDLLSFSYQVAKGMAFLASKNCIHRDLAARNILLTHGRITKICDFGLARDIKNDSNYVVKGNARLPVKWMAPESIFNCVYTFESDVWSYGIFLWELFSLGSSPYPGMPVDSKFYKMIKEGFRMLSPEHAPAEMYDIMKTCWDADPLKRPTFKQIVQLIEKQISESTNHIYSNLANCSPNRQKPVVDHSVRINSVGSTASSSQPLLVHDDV

inhibition [2]: inactive | inhibition [3]: inactive | inhibition [6]: inactive | inhibition [9]: inactive | inhibition [12]: inactive | inhibition [13]: inactive | AUC(0-t) at 8 h [14]: 0.57 µM·h | Cmax [15]: 320 nM | inhibition [16]: inactive | Tmax [18]: 30 min | inhibition [19]: inactive | inhibition (Sus scrofa): inactive | Tmax [22]: 15 min | inhibition [23]: inactive | Cmax [24]: 520 nM | inhibition [26]: inactive | inhibition [28]: inactive | inhibition [29]: inactive | AUC(0-t) at 8 h [32]: 0.43 µM·h
Compound: Cc1nc2nc(Sc3ccccc3)cnc2cc1NC(=O)c1ccccc1
Activity (MCF7 [1]): >50% | IC50 (MCF7 [4]): 4000 nM | Activity (Mus musculus [5]): Non-Toxic | Activity (T47D [7]): >50% | IC50 (T47D [8]): 1500 nM | Activity (HCC1954 [10]): >50% | Activity (MCF7 [11]): >50% | Activity (MDA-MB-231 [17]): >50% | IC50 (MDA-MB-231 [20]): 4000 nM | Activity (MDA-MB-231 [21]): >50% | IC50 (HCC1954 [25]): 4500 nM | Activity (HCC1954 [27]): >50% | IC50 (SK-BR-3): 3700 nM | Activity (T47D [30]): >50% | Activity (Mus musculus [31]): Non-Toxic

Compound: CS(=O)(=O)N1CCN(Cc2cc3nc(-c4cccc5[nH]ncc45)nc(N4CCOCC4)c3s2)CC1 [PICTILISIB]
Activity (HCC1954 [33]): 350 mm3 | IC50 (MCF7 [4]): 2000 nM | IC50 (T47D [8]): 1200 nM | IC50 (MDA-MB-231 [20]): > 30000 nM | IC50 (HCC1954 [25]): 1300 nM | IC50 (SK-BR-3): 900 nM
